# US10160705B2, “Class of HDAC inhibitors expands the renal progenitor cells population and improves the rate of recovery from acute kidney injury” (University of Pittsburgh—Of the Commonwealth System of …, priority 2011, dated 2018)
# Read-outs that look alike come from different tables or passages of the source.
# Columns and labels:
# [1] = test system: renal progenitor cells; assay: In situ hybridization for lhx1a expression in 10-somite embryos (renal progenitor cell expansion); assay type: in vivo; conditions: for responders at 3 µM / responders at 0.2 µM / responders at 0.4 µM / responders at 0.8 µM / responders at 1.5 µM / EC50: Danio rerio; for responders at 0.2 µM: 200 nM, read-out: Expansion of Cells (including repeats* and recounts**) 200 nM; for responders at 0.4 µM: 400 nM, read-out: Expansion of Cells (including repeats* and recounts**) 400 nM; for responders at 0.8 µM: 800 nM, read-out: Expansion of Cells (including repeats* and recounts**) 800 nM; for responders at 1.5 µM: read-out: Expansion of Cells (including repeats* and recounts**) 1.5 μM; for EC50: first pass EC50 from percent expansion (Excel trendline), average where several experiments
# Procedure: PTBA was synthesized as described below. Hydroxyurea and aphidicolin were obtained from Sigma-Aldrich.
# In situ hybridization and immunocytochemistry: In situ hybridization was performed as previously described with some modifications.142 Hybridization temperature was 65° C. Embryos were blocked in 2% blocking reagent (Roche) with 5% sheep serum in MAB (100 mM maleic acid and 150 mM NaCl [pH 7.5]). Whole-mount immunocytochemistry with 1:25 mouse anti-α6F antibody (Developmental Studies Hybridoma Bank) and 1:100 Cy3 secondary antibody (Jackson ImmunoResearch) was performed as described previously.108 Embryos were embedded in JB-4 for sectioning per the manufacturer's instructions (Polysciences), sectioned at 5 μm, and mounted with Cytoseal 60 (Richard-Allan Scientific).
# The remaining PTBA analogs were synthesized.
# In situ hybridization for lhx1a was performed as described above. […] Compounds were classified as effective, partially-effective or ineffective based on comparison to the effects of PTBA at a given concentration.
# Testing of the compounds is on-going, but for those tested, Table 6 provides first pass EC50s based upon colormetric in situ hybridizations for the Lhx1a mRNA expression levels. After the procedure is run, in situ hybridization is done for the lhx1 mRNA expression and the number of embryos that show an expanded kidney field is manually counted to establish the percent of embryos showing expansion. Then the EC50 is determined by plotting the percent expansion in Excel, graphing the results and using the trendline function to determine the 50 percent point.
# [2] = test system: zebrafish embryos; assay: Phenotypic screen for edema and survival in zebrafish larvae at 72 hpf; conditions: for Dead / Edemic 1 (E1) / Edemic 2 (E2) / Edemic 3 (E3) / Wild-type (WT): number of larvae (of 36), 3 μM from 2 hpf, scored at 72 hpf; for effect on zebrafish embryos in the phenotypic screen: 3 μM
# Procedure: The screen was performed in zebrafish embryos using the National Cancer Institute's Developmental Therapeutics Program (NCI/DTP) Diversity Set I. This library contains 1990 compounds selected by pharmacophore modeling to represent the more than 140,000 small molecules maintained in the NCI/DTP Open Repository. Compounds from the NCI/DTP Diversity Set I were diluted to 10 μM in E3 embryo medium (5 mM NaCl, 0.33 mM CaCl2, 0.33 mM MgSO4, and 0.17 mM KCl) in a final DMSO concentration of 0.5% and arrayed in 96-well plates. Beginning at approximately 2 hpf, embryos were transferred to each well in groups of five using a glass pipette. The plates were incubated at 28.5° C. for 70 hours. Individual wells were then scored for a dominant phenotype, representative of at least four of the five embryos. The primary objective was to identify compounds that caused edema in treated embryos at 72 hpf. Small molecules generating edema were retested once for verification, before obtaining additional compound from the NCI/DTP Open Repository.
# PTBA was synthesized as described below. Hydroxyurea and aphidicolin were obtained from Sigma-Aldrich. Groups of 20 to 30 chorionated 2 hpf embryos were arrayed in individual wells of 12-well plates. E3 medium was removed with a glass pipette and replaced with 1.5 ml treatment solutions containing 0.5% DMSO in E3 with or without compound at the reported concentrations. Treatments for all studies were initiated at 2 hpf, except for the temporal studies (FIG. 6) and the HUA studies (FIG. 11). HUA studies were performed as described previously (Zhang, L., et al. Cell cycle progression is required for zebrafish somite morphogenesis but not segmentation clock function. Development 135, 2065-2070, (2008)), with the following modifications. HUA in 0.5% DMSO was added at early gastrulation (5 hpf) and PTBA was subsequently added at late gastrulation (8 hpf) to allow for penetration of the proliferation inhibitors. All embryos were incubated at 28.5° C. until the required developmental stage.
# Following 70 hours of treatment (as described above), edemic phenotypes in 72 hpf larvae were scored using a phenotype-based classification system. Wild type: no visible edema or developmental delay. […] Significant effects (p<0.05) on survival were determined by two-tailed Fisher's exact test in comparison with the 0 μM PTBA treatment group.
# PTBA and methyl-4-(phenylthio)butanoate were synthesized as described above. 4-(Naphthalen-2-ylthio)butanoic acid (NSC2733) and 3-(phenylthio)benzoic acid (NSC113994), were obtained from the NCI/DTP Open Repository. APHA compound 8, Apicidin, butanoic acid, PBA, 4-phenoxybutanoic acid, 5-phenylpentanoic acid, Scriptaid, TSA, and valproic acid were obtained from Sigma-Aldrich. MS-275 and SAHA were obtained from Cayman Chemical Co. 4-(phenylsulfonyl)butanoic acid was obtained from Matrix Scientific. Tubacin was a gift of Dr. Ralph Mazitschek of the Broad Institute (Cambridge, Mass.). The remaining PTBA analogs were synthesized. Three independent groups of 12 chorionated 2 hpf embryos were arrayed in individual wells of 24-well plates. E3 medium was removed with a glass pipette and replaced with 800 μl treatment solutions containing 0.5% DMSO in E3 with or without compound at the reported concentrations.
# Phenotypic screening of PTBA analogs was performed identically to the concentration-response experiments detailed above. Embryos were treated with each PTBA analog from 2 to 72 hpf as described above.
# [3] = 3 μM from 2 hpf, 10-somite embryos
# [4] = 3 μM from 2 hpf, 10-somite embryos, read-out: lhx1a expansion, percent of treated embryos
# [5] = percent of embryos with expanded kidney field
# [6] = percent of embryos with expanded kidney field, 1.5 μM
# [7] = percent of embryos with expanded kidney field, 3 μM, read-out: Expansion of Cells (including repeats* and recounts**) 3 μM
SMILES,"Lhx1a expansion caused by analog treatment, 3 μM [1, 3]",Dead [2],Edemic 1 (E1) [2],Edemic 2 (E2) [2],Edemic 3 (E3) [2],Wild-type (WT) [2],"responders at 0.2 µM [1, 5] [%]","responders at 0.4 µM [1, 5] [%]","responders at 0.8 µM [1, 5] [%]","responders at 1.5 µM [1, 6] [%]","responders at 3 µM [1, 7] [%]",EC50 [1] [nM],other results
"O=C(O)c1cccc(Sc2ccccc2)c1 [3-(phenylthio)benzoic acid, reference compound]",−,0,34,0,0,2,,,,,,,"lhx1a expansion, percent of treated embryos [1, 3]: no expansion"
"O=C(O)CCCSc1ccc2ccccc2c1 [4-(naphthalen-2-ylthio)butanoic acid, 4-(Naphthalen-2-ylthio)butanoic acid, reference compound]",−,2,9,0,0,25,,,,,,,"lhx1a expansion, percent of treated embryos ([1]; 3 μM from 2 hpf, 10-somite embryos, listed as 4-(napthalen-2-ylthio)butanoic acid): no expansion; responders at 3 µM [1, 4]: 33%"
"O=C(O)CCCOc1ccccc1 [4-phenoxybutanoic acid, reference compound]",−,0,0,0,0,36,,,,,,,"responders at 3 µM [1, 4]: 13%"
"O=C(O)CCCCc1ccccc1 [5-phenylpentanoic acid, reference compound]",−,0,0,0,0,36,,,,,,,"lhx1a expansion, percent of treated embryos [1, 3]: no expansion"
"Cn1cc(C(=O)Cc2ccccc2)cc1/C=C/C(=O)NO [APHA compound 8, reference compound]",−,0,0,0,0,36,,,,,,,
"Nc1ccccc1NC(=O)c1ccc(CNC(=O)OCc2cccnc2)cc1 [MS-275, reference compound]",−,0,0,0,0,36,,,,,,,effect on zebrafish embryos in the phenotypic screen [2]: no effect
"O=C(CCCCCCC(=O)Nc1ccccc1)NO [SAHA, reference compound]",−,0,0,0,0,36,,,,,,,effect on zebrafish embryos in the phenotypic screen [2]: no effect
"COC(=O)CCCCCS(=O)(=O)c1ccc2ccccc2c1 [UPHD-00063, methyl 6-(naphthalen-2-ylsulfonyl)hexanoate]",,,,,,,10,5,0,0,6,> 3000,
"COC(=O)CCCCCSc1ccccn1 [UPHD-00065, methyl 6-(pyridin-2-ylsulfanyl)hexanoate]",,,,,,,0,20,6,11,29,> 3000,
"Nc1ccccc1NC(=O)CCCCCS(=O)(=O)c1ccc2ccccc2c1 [UPHD-00066, N-(2-aminophenyl)-6-(naphthalene-2-sulfonyl)hexanamide]",,,,,,,0,0,5,11,10,> 3000,
"O=C(NO)c1ccc(CCSc2ccc(F)cc2)cc1 [UPHD-00067, 4-{2[(4-fluoro-phenyl)sulfanyl]ethyl}-N-hydroxybenzamide]",,,,,,,17,,,,20,800,
"O=C(CCCCCS(=O)(=O)c1ccc2ccccc2c1)NO [UPHD-00069, N-hydroxy-6-(naphthalene-2-sulfonyl)hexanamide]",,,,,,,0,0,0,0,0,> 3000,
"O=C(CCCCCSc1nc2ccccc2s1)NO [UPHD-00070, 6-(1,3-benzothiazol-2-ylsulfanyl)-N-hydroxyhexanamide]",,,,,,,0,0,0,0,0,> 3000,
"Nc1ccccc1NC(=O)CCCCCSc1nc2ccccc2s1 [UPHD-00071, N-(2-aminophenyl)-6-(1,3-benzothiazol-2-ylsulfanyl)hexanamide]",,,,,,,12,42,74,26,70,,
"Nc1ccccc1NC(=O)CCCCCSc1ncccn1 [UPHD-00072, N-(2-aminophenyl)-6-(pyrimidin-2-ylsulfanyl)hexanamide]",,,,,,,0,0,5,5,5,> 3000,
"Nc1ccccc1NC(=O)CCCCCSc1ccccn1 [UPHD-00073, N-(2-aminophenyl)-6-(pyridin-2-ylsulfanyl)hexanamide]",,,,,,,5,10,0,20,30,> 3000,
"O=C(CCCCCSc1ccc(F)cc1)Nc1ccccc1O [UPHD-00077, 6-[(4-fluoro-phenyl)sulfanyl]-N-(2-hydroxyphenyl)hexanamide]",,,,,,,40,100,100,,,230,"Expansion of Cells (including repeats* and recounts**) 1.5 μM [1, 6]: ND (All Dead); Expansion of Cells (including repeats* and recounts**) 3 μM ([1]; percent of embryos with expanded kidney field, 3 μM): ND (All Dead)"
"Cn1c(SCCCCCC(=O)Nc2ccccc2N)nc2ccccc21 [UPHD-00081, N-(2-aminophenyl)-6-[(1-methyl-1H-1,3-benzodiazol-2-yl)sulfanyl]hexanamide]",,,,,,,0,10,10,20,32,> 3000,
"COC(=O)CCCCCSc1ccc(OC)cc1 [UPHD-00090, methyl 6-[(4-methoxy-phenyl)sulfanyl]hexanoate]",,,,,,,0,12,25,26,65,2340,
